System: SW 1271 complex tumor spheroid viability
Assay: Anticancer human tumor SW 1271 cell line growth inhibition;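 further: spheroids exposed to agents for seven days before readout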;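 on viability, T/C: percent of DMSO vehicle control luminescence so 100% = vehicle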
Details: for IC50: curve of first compound; for viability, T/C: stronger effect = lower value
Outline: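 Single agents and combinations were tested on spheroids built from tumor cells plus HUVEC and hMSC, at half-log dilutions starting at or near clinical Cmax, else 10 microM; final DMSO 0.25% (v/v).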

O=C(c1cc(Cc2n[nH]c(=O)c3ccccc23)ccc1F)N1CCN(C(=O)C2CC2)CC1 + Cn1nnc2c(C(N)=O)ncn2c1=O
IC50 (second compound 1 µM): 2200 nM
IC50 (second compound 3.16 µM): 2110 nM
IC50 (second compound 10 µM): 1640 nM
IC50 (second compound 31.6 µM): 443 nM
IC50 (second compound 100 µM): < 94.9 nM
viability, T/C (second compound 1 µM, first compound 0.0949 µM): 95.3%
viability, T/C (second compound 1 µM, first compound 0.3 µM): 78.7%
viability, T/C (second compound 1 µM, first compound 0.949 µM): 69.1%
viability, T/C (second compound 1 µM, first compound 3 µM): 45.7%
viability, T/C (second compound 1 µM, first compound 9.49 µM): 24.4%
viability, T/C (second compound 1 µM, first compound 30 µM): 32.5%
viability, T/C (second compound 3.16 µM, first compound 0.0949 µM): 86.3%
viability, T/C (second compound 3.16 µM, first compound 0.3 µM): 82.2%
viability, T/C (second compound 3.16 µM, first compound 0.949 µM): 70.7%
viability, T/C (second compound 3.16 µM, first compound 3 µM): 41%
viability, T/C (second compound 3.16 µM, first compound 9.49 µM): 33%
viability, T/C (second compound 3.16 µM, first compound 30 µM): 34.4%
viability, T/C (second compound 10 µM, first compound 0.0949 µM): 95.6%
viability, T/C (second compound 10 µM, first compound 0.3 µM): 86.2%
viability, T/C (second compound 10 µM, first compound 0.949 µM): 63.2%
viability, T/C (second compound 10 µM, first compound 3 µM): 34.5%
viability, T/C (second compound 10 µM, first compound 9.49 µM): 34.4%
viability, T/C (second compound 10 µM, first compound 30 µM): 27%
viability, T/C (second compound 31.6 µM, first compound 0.0949 µM): 82.5%
viability, T/C (second compound 31.6 µM, first compound 0.3 µM): 58.1%
viability, T/C (second compound 31.6 µM, first compound 0.949 µM): 33.9%
viability, T/C (second compound 31.6 µM, first compound 3 µM): 33.1%
viability, T/C (second compound 31.6 µM, first compound 9.49 µM): 33.5%
viability, T/C (second compound 31.6 µM, first compound 30 µM): 27.6%
viability, T/C (second compound 100 µM, first compound 0.0949 µM): 35.1%
viability, T/C (second compound 100 µM, first compound 0.3 µM): 26.4%
viability, T/C (second compound 100 µM, first compound 0.949 µM): 29%
viability, T/C (second compound 100 µM, first compound 3 µM): 32.2%
viability, T/C (second compound 100 µM, first compound 9.49 µM): 28.8%
viability, T/C (second compound 100 µM, first compound 30 µM): 28.2%

Cc1sc2c(c1C)C(c1ccc(Cl)cc1)=NC(CC(=O)Nc1ccc(O)cc1)c1nnc(C)n1-2 (stereo not given) + COc1cc2c(cc1O)CCNC21CSC2c3c(OC(C)=O)c(C)c4c(c3C(COC1=O)N1C(O)C3Cc5cc(C)c(OC)c(O)c5C(C21)N3C)OCO4
IC50 (second compound 30 pM): 145 nM
IC50 (second compound 94.9 pM): 41.6 nM
IC50 (second compound 0.0003 µM): < 9.49 nM
IC50 (second compound 0.000949 µM): < 9.49 nM
IC50 (second compound 0.003 µM): < 9.49 nM
viability, T/C (second compound 30 pM, first compound 0.00949 µM): 101%
viability, T/C (second compound 30 pM, first compound 0.03 µM): 108%
viability, T/C (second compound 30 pM, first compound 0.0949 µM): 74.3%
viability, T/C (second compound 30 pM, first compound 0.3 µM): 8.06%
viability, T/C (second compound 30 pM, first compound 0.949 µM): 1.02%
viability, T/C (second compound 30 pM, first compound 3 µM): 0.91%
viability, T/C (second compound 94.9 pM, first compound 0.00949 µM): 76.2%
viability, T/C (second compound 94.9 pM, first compound 0.03 µM): 57.9%
viability, T/C (second compound 94.9 pM, first compound 0.0949 µM): 28.9%
viability, T/C (second compound 94.9 pM, first compound 0.3 µM): 5.41%
viability, T/C (second compound 94.9 pM, first compound 0.949 µM): 1.12%
viability, T/C (second compound 94.9 pM, first compound 3 µM): 0.93%
viability, T/C (second compound 0.0003 µM, first compound 0.00949 µM): 30.6%
viability, T/C (second compound 0.0003 µM, first compound 0.03 µM): 23.9%
viability, T/C (second compound 0.0003 µM, first compound 0.0949 µM): 13.5%
viability, T/C (second compound 0.0003 µM, first compound 0.3 µM): 2.97%
viability, T/C (second compound 0.0003 µM, first compound 0.949 µM): 1.45%
viability, T/C (second compound 0.0003 µM, first compound 3 µM): 0.77%
viability, T/C (second compound 0.000949 µM, first compound 0.00949 µM): 6.61%
viability, T/C (second compound 0.000949 µM, first compound 0.03 µM): 6.28%
viability, T/C (second compound 0.000949 µM, first compound 0.0949 µM): 2.99%
viability, T/C (second compound 0.000949 µM, first compound 0.3 µM): 1.78%
viability, T/C (second compound 0.000949 µM, first compound 0.949 µM): 0.1%
viability, T/C (second compound 0.000949 µM, first compound 3 µM): 0.09%
viability, T/C (second compound 0.003 µM, first compound 0.00949 µM): 0.11%
viability, T/C (second compound 0.003 µM, first compound 0.03 µM): 0.11%
viability, T/C (second compound 0.003 µM, first compound 0.0949 µM): 0.11%
viability, T/C (second compound 0.003 µM, first compound 0.3 µM): 0.11%
viability, T/C (second compound 0.003 µM, first compound 0.949 µM): 0.09%
viability, T/C (second compound 0.003 µM, first compound 3 µM): 0.17%

Reference: PubChem BioAssay AID1845215 (Molecular Pharmacology Branch, DTP, NCI, 2023)
